Measurements reported in US20120157453A1, “RAF INHIBITOR COMPOUNDS AND METHODS OF USE THEREOF” (GENENTECH, INC., priority 2009, published 2012).
Like-named read-outs stand apart in the source and are kept apart here.

Key:
V600E full-length B-Raf = molecular target: T1, V600E full-length B-Raf (Homo sapiens, UniProt P15056, V600E); test: B-Raf IC50 assay (incorporation of 33P phosphate into FSBA-modified MEK); type: biochemical
T1 construct: 1 μM FSBA-MEK and 20 nM V600E full-length B-Raf; made in house; host or cells: Sf9 insect cells (baculovirus)
T1 sequence (P15056 whole entry V600E): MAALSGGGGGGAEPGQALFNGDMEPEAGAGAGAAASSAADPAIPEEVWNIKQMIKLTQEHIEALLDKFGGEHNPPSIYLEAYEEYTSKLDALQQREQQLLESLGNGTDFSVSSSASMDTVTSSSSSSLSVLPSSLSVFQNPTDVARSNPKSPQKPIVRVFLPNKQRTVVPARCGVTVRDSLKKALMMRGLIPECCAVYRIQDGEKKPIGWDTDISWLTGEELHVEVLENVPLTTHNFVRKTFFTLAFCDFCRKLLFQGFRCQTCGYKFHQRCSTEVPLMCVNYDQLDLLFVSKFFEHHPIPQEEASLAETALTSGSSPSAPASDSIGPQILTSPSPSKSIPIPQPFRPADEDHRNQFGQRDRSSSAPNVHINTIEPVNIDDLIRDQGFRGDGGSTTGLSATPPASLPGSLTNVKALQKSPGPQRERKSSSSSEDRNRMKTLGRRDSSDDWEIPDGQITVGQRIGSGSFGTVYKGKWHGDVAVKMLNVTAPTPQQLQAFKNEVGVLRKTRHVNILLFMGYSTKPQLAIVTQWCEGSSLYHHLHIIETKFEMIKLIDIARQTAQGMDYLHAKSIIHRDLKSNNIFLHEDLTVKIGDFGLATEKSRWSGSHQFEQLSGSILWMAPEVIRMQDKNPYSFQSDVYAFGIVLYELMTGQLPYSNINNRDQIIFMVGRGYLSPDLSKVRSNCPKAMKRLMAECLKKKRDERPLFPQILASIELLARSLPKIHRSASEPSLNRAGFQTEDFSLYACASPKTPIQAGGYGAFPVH
From the text: Determining the activity of Raf in the sample is possible by a number of direct and indirect detection methods (US 2004/0082014). Activity of human recombinant B-Raf protein may be assessed in vitro by assay of the incorporation of radio labeled phosphate to recombinant MAP kinase (MEK), a known physiologic substrate of B-Raf, according to US 2004/0127496 and WO 03/022840. The activity/inhibition of V600E full-length B-Raf was estimated by measuring the incorporation of radio labeled phosphate from [γ-^33P]ATP into FSBA-modified wild-type MEK (see Example A).
Activity of human recombinant B-Raf protein may be assessed in vitro by assay of the incorporation of radio labeled phosphate to recombinant MAP kinase (MEK), a known physiologic substrate of B-Raf, according to US 2004/0127496 and WO 03/022840. Catalytically active human recombinant B-Raf protein is obtained by purification from sf9 insect cells infected with a human B-Raf recombinant baculovirus expression vector.
The activity/inhibition of V600E full-length B-Raf was estimated by measuring the incorporation of radio labeled phosphate from [γ-^33P]ATP into FSBA-modified wild-type MEK. The 30-μL assay mixtures contained 25 mM Na Pipes, pH 7.2, 100 mM KCl, 10 mM MgCl2, 5 mM β-glycerophosphate, 100 μM Na Vanadate, 4 μM ATP, 500 nCi [γ-^33P]ATP, 1 μM FSBA-MEK and 20 nM V600E full-length B-Raf. Incubations were carried out at 22° C. in a Costar 3365 plate (Corning). Prior to the assay, the B-Raf and FSBA-MEK were preincubated together in assay buffer at 1.5× (20 μL of 30 nM and 1.5 μM, respectively) for 15 minutes, and the assay was initiated by the addition of 10 μL of 10 μM ATP. Following the 60-minute incubation, the assay mixtures were quenched by the addition of 100 μL of 25% TCA, the plate was mixed on a rotary shaker for 1 minute, and the product was captured on a Perkin-Elmer GF/B filter plate using a Tomtec Mach III Harvester. After sealing the bottom of the plate, 35 μL of Bio-Safe II (Research Products International) scintillation cocktail were added to each well and the plate was top-sealed and counted in a Topcount NXT (Packard).

[1] = system: basal ERK1/2 phosphorylation in Malme-3M cells; test: Cellular ERK 1/2 phosphorylation assay; type: cell-based; details: Homo sapiens, 1 h, pERK normalized to total ERK
Method: Inhibition of basal ERK1/2 phosphorylation was determined by the following in vitro […], which comprises incubating cells with a compound of Formula II for 1 hour and quantifying the fluorescent pERK signal on fixed cells and normalizing to total ERK signal.
Materials and Methods: Malme-3M cells were obtained from ATCC and grown in RPMI-1640 supplemented with 10% fetal bovine serum. Cells were plated in 96-well plates at 24,000 cells/well and allowed to attach for 16-20 hours at 37° C., 5% CO2. The media was removed, and DMSO-diluted compounds were added in RPMI-1640 at a final concentration of 1% DMSO. The cells were incubated with the compounds for 1 hour at 37° C., 5% CO2. The cells were washed with PBS and fixed in 3.7% formaldehyde in PBS for 15 minutes. This was followed by washing in PBS/0.05% Tween20 and permeabilizing in −20° C. 100% MeOH for 15 minutes. Cells were washed in PBS/0.05% Tween20 then blocked in Odyssey blocking buffer (LI-COR Biosciences) for 1 hour. Antibodies to phosphorylated ERK (1:400, Cell Signaling #9106, monoclonal) and total ERK (1:400, Santa Cruz Biotechnology #sc-94, polyclonal) were added to the cells and incubated 16-20 hours at 4° C. After washing with PBS/0.05% Tween20, the cells were incubated with fluorescently-labeled secondary antibodies (1:1000 goat anti-rabbit IgG-IRDye800, Rockland and 1:500 goat anti-mouse IgG-Alexa Fluor 680, Molecular Probes) for an additional hour. Cells were then washed and analyzed for fluorescence at both wavelengths using the Odyssey Infrared Imaging System (LI-COR Biosciences). Phosphorylated ERK signal was normalized to total ERK signal.

[2] = B-Raf V600E, bound less than 1 μM, read-out: IC50
[3] = Example A assay, 4 μM ATP, 20 nM enzyme, 60-minute incubation, read-out: BRAF V600E IC50

Row | IC50 (V600E full-length B-Raf; [2]) | IC50 (V600E full-length B-Raf; [3]) | SMILES | IC50 ([1]; bound less than 1 μM) | IC50 [1] | IC50 ([1]; bound less than 500 nM)
1 | < 1000 nM | 28.2 nM | CCCS(=O)(=O)Nc1ccc(F)c(NC(=O)Nc2ncnc3sc(C)c(C)c23)c1F [Example 20, Propane-1-sulfonic acid {3-[3-(5,6-dimethyl-thieno[2,3-d]pyrimidin-4-yl)-ureido]-2,4-difluoro-phenyl}-amide] | < 1000 nM | – | –
2 | < 1000 nM | 90.8 nM | CCCS(=O)(=O)Nc1ccc(Cl)c(NC(=O)Nc2ncnc3oc(C)c(C)c23)c1F [Example 21, Propane-1-sulfonic acid {4-chloro-3-[3-(5,6-dimethyl-furo[2,3-d]pyrimidin-4-yl)-ureido]-2-fluoro-phenyl}-amide] | < 1000 nM | 522 nM | –
3 | < 1000 nM | 18.8 nM | CCCS(=O)(=O)Nc1ccc(Cl)c(NC(=O)Nc2ncnc3sccc23)c1F [Example 22, Propane-1-sulfonic acid [4-chloro-2-fluoro-3-(3-thieno[2,3-d]pyrimidin-4-yl-ureido)-phenyl]-amide] | < 1000 nM | – | < 500 nM
